In brackets after ≈: the same amount, converted by molar mass. Where two headings read alike, the source gives them in different places.
Key:
[1] = test system: Propionibacterium acnes (ATCC 11827); test: Minimum inhibitory concentration (MIC) against Propionibacterium acnes (Test Example 1); format: cell-based
Experimental: The minimum inhibitory concentration (MIC) of caryophyllene, cedrene, longifolene, and thujopsene obtained in Preparation Example against Propionibacterium acnes (ATCC 11827) was determined as follows.
The test compound was added to a 4.6% ABCM bouillon aqueous solution (prepared by dissolving 46 g of an ABCM bouillon medium produced by Eiken Kagaku K. K. in 1 l of distilled water) in a concentration of 100 μg/ml, and the solution was stepwise diluted two times with the same medium, followed by sterilization.
A 5 ml aliquot of the solution was put in a test tube and inoculated with 0.1 ml of the culture of Propionibacterium acnes which had been preliminarily cultured so as to have a cell density of 5×10^8 cells/ml. The system was static-cultured under anaerobic conditions at 37° C. for 48 hours, and the turbidity of the cultured system was measured at a wavelength of 600 nm to obtain MIC (μg/ml).

various molds = conditions: J. Antibact. Antifung. Agents, 8(1), 3-6 (1980); cited from earlier work
Bacillus subtilis = conditions: J. Antibact. Antifung. Agents, 8(1), 3-6 (1980); cited from earlier work
Escherichia coli [2] = conditions: J. Antibact. Antifung. Agents, 8(1), 3-6 (1980); cited from earlier work
Pseudomonas aeruginosa = conditions: J. Antibact. Antifung. Agents, 8(1), 3-6 (1980); cited from earlier work
several fungi = conditions: Indian Perfumer, 28(2), 82-87 (1984); cited from earlier work
Escherichia coli [3] = conditions: Indian Perfumer, 28(2), 82-87 (1984); cited from earlier work
skin = conditions: conventional use in acne vulgaris; cited from earlier work
[4] = Cutibacterium acnes, ATCC11827, anaerobic, 37° C., 48 hours, turbidity at 600 nm, read-out: MIC

Row | Compound | MIC [1, 4] [µg/mL] | antimicrobial activity (several fungi) | antimicrobial activity (Escherichia coli [3]) | further results
1 | CC1=CC[C@]2(C)CCCC(C)(C)[C@@]23C[C@@H]13 [Thujopsene] | 6.25 (≈ 30.6 µM) | – | – | antimicrobial activity (various molds): any substantial antimicrobial activity on various molds, Bacillus subtilis, Escherichia coli, and Pseudomonas aeruginosa was not exhibited; antimicrobial activity (Bacillus subtilis): any substantial antimicrobial activity on various molds, Bacillus subtilis, Escherichia coli, and Pseudomonas aeruginosa was not exhibited; antimicrobial activity (Escherichia coli [2]): any substantial antimicrobial activity on various molds, Bacillus subtilis, Escherichia coli, and Pseudomonas aeruginosa was not exhibited; antimicrobial activity (Pseudomonas aeruginosa): any substantial antimicrobial activity on various molds, Bacillus subtilis, Escherichia coli, and Pseudomonas aeruginosa was not exhibited
2 | Cedrene | – | – | – | MIC ([1]; anaerobic, 37° C., 48 hours, turbidity at 600 nm): 1.57 µg/mL
3 | C=C1CC/C=C(/C)CC[C@@H]2[C@@H]1CC2(C)C [Caryophyllene] | – | no activity | no activity | MIC ([1]; Cutibacterium acnes, ATCC11827, 48 h): 3.13 µg/mL (≈ 15.3 µM)
4 | C=CCc1ccc(O)c(OC)c1 [Eugenol, reference compound] | 50 (≈ 304 µM) | strong antimicrobial activity | strong antimicrobial activity | –
5 | [H]/N=C(\N/C(=N/[H])NCCCCCCNC(=N)NC(=N)Nc1ccc(Cl)cc1)Nc1ccc(Cl)cc1 [Chlorhexidine Gluconate] | – | – | – | side effects (skin): side effects of causing erythema or exfoliation, causing extreme skin roughening and skin irritation
6 | C=C1[C@H]2CC[C@@H]3[C@H]2C(C)(C)CCC[C@]13C [Longifolene] | 1.57 (≈ 7.68 µM) | – | – | –
